This passage reports IC50 results from patent publication US20160083400A1, “TRICYCLIC GUANIDINE DERIVATIVE” (Sunovion Pharmaceuticals Inc., priority 2014, published 2016).

For this test, the target named is PDE1B (Homo sapiens, UniProt Q01064). Nature of the test: In vitro HTRF PDE1 inhibition assay (PDE1B). It counts as biochemical. The note with it: 100 nM cyclic GMP, calmodulin, 45 minutes at 37° C. (In general: TR-FRET usually uses a lanthanide donor and a delayed reading to cut background.)

As a reminder, the IC50 is the concentration that gives 50% inhibition.

PDE1B, sequence (Q01064 whole entry): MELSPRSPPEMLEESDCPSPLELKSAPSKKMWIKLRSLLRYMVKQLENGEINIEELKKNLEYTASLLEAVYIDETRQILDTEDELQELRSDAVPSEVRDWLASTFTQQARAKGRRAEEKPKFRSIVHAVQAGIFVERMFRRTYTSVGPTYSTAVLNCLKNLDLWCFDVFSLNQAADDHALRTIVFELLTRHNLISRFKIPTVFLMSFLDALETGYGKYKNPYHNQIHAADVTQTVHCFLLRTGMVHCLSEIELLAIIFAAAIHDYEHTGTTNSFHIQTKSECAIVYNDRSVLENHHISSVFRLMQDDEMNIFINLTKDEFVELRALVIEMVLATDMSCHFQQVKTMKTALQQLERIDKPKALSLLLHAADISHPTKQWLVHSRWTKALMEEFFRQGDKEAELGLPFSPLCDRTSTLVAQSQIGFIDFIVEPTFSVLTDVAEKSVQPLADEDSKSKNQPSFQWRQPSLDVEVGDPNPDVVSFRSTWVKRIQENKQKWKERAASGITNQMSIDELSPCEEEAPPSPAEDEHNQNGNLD

`COc1ccc(C2CCn3c(nn4c(C(C)C)ncc4c3=O)N2)cc1` (centres unmarked) [Example 54] had a half-maximal inhibitory concentration (IC50) below 1 µM.

`O=c1c2cnc(C3CCOCC3)n2nc2n1CCC(c1cccc(Cl)c1)N2` (centres unmarked) [Example 56] registered a half-inhibitory concentration (IC50) below 1 µM.

As to `COc1ccc(CC2CCn3c(nn4c(C5CCOCC5)ncc4c3=O)N2)cc1` (centres unmarked) [Example 58], the IC50 was below 1 µM.

The compound `O=c1c2cnc(C3CCOCC3)n2nc2n1CCC(Cc1ccc(Cl)cc1)N2` (centres unmarked) [Example 59] returned a 50% inhibitory concentration (IC50) below 1 µM.

`O=c1c2cnc(C3CCCC3)n2nc2n1CCC(c1ccc(Cl)cc1)N2` (centres unmarked) [Example 60] gave a half-maximal inhibitory concentration (IC50) below 1 µM.

In turn, `O=c1c2cnc(C3CCCC3)n2nc2n1CC[C@@H](c1ccc(Cl)cc1)N2` [Example 62] came in with an IC50 below 1 µM.

`O=c1c2cnc(C3CCC3)n2nc2n1CCC(c1ccc(Cl)cc1)N2` (centres unmarked) [Example 63] came in with a half-inhibitory concentration (IC50) below 1 µM.

`O=c1c2cnc(C3CCC3)n2nc2n1CCC(c1ccc(C(F)(F)F)cc1)N2` (centres unmarked) [Example 64]: the IC50 was below 1 µM.

In turn, `O=c1c2cnc(C3CCC3)n2nc2n1CCC(Cc1ccc(Cl)cc1)N2` (centres unmarked) [Example 66] yielded an IC50 below 1 µM.

The compound `O=c1c2cnc(C3CC3)n2nc2n1CCC(c1ccc(Cl)cc1)N2` (centres unmarked) [Example 67] came in with a 50% inhibitory concentration (IC50) below 1 µM.

In turn, `CC(C)(C)c1ncc2c(=O)n3c(nn12)NC(c1ccc(Cl)cc1)CC3` (centres unmarked) [Example 68] showed an IC50 below 1 µM.

`Cc1cnc(CC2CCn3c(nc4c(cnn4C4CCCC4)c3=O)N2)nc1` (centres unmarked) [Example 70, 1-Cyclopentyl-8-[(5-methyl-2-pyrimidinyl)methyl]-6,7,8,10-tetrahydropyrazolo[3,4-d]pyrimido[1,2-a]pyrimidin-4(1H)-one] gave a half-inhibitory concentration (IC50) of 1 to 10 µM.

Regarding `Cc1ncc(CC2CCn3c(nc4c(cnn4C4CCCC4)c3=O)N2)cn1` (centres unmarked) [Example 71], the IC50 lay in the range of 1 to 10 µM.

The compound `Cc1ncc(CC2CCn3c(nc4c(cnn4C(C)C)c3=O)N2)cn1` (centres unmarked) [Example 72] yielded a 50% inhibitory concentration (IC50) of 1 to 10 µM.

With `Cc1cnc(CC2CCn3c(nc4c(cnn4C(C)C)c3=O)N2)nc1` (centres unmarked) [Example 73], the 50% inhibitory concentration (IC50) was in the range of 1 to 10 µM.

The compound `O=c1c2cnn(C3CCOCC3)c2nc2n1CC(c1ccc(Cl)cc1)N2` (centres unmarked) [Example 75] displayed an IC50 below 1 µM.

The compound `O=c1c2cnn(C3CCOCC3)c2nc2n1CC(c1ccc(F)cc1)N2` (centres unmarked) [Example 76] gave an IC50 below 1 µM.

`COc1ccc([C@H]2CCn3c(nn4c(C(C)C)ncc4c3=O)N2)cc1` [Example 85] registered an IC50 below 1 µM.

`N#Cc1ccc(C2Cn3c(nc4c(cnn4C4CCOCC4)c3=O)N2)cc1` (centres unmarked) [Example 86, 4-[4-Oxo-1-(tetrahydro-2H-pyran-4-yl)-4,6,7,8-tetrahydro-1H-imidazo[1,2-a]pyrazolo[3,4-d]pyrimidin-7-yl]benzonitrile] returned a half-inhibitory concentration (IC50) below 1 µM.

As to `CC(C)c1ncc2c(=O)n3c(nn12)NC(c1ccc(C#N)cc1)CC3` (centres unmarked) [Example 91], the half-inhibitory concentration (IC50) is below 1 µM.

Take `CC(C)c1ncc2c(=O)n3c(nn12)NC(c1ccc(C#N)cn1)CC3` (centres unmarked) [Example 92]: the half-inhibitory concentration (IC50) was below 1 µM.

For the compound `N#Cc1ccc(C2CCn3c(nn4c(C5CCOCC5)ncc4c3=O)N2)cc1` (centres unmarked) [Example 93], the half-inhibitory concentration (IC50) was below 1 µM.

Take `N#Cc1cccc(C2CCn3c(nn4c(C5CCOCC5)ncc4c3=O)N2)c1` (centres unmarked) [Example 94]: the IC50 is below 1 µM.

`N#Cc1ccc(C2CCn3c(nn4c(C5CCC5)ncc4c3=O)N2)cc1` (centres unmarked) [Example 95] returned an IC50 below 1 µM.

As to `Cc1ccc([C@@H]2CN3C(=O)c4cnc(C(C)C)n4NC3=N2)cc1` [Example 97, (2R)-8-Isopropyl-2-(4-methylphenyl)-2,10-dihydro-3H,5H-diimidazo[2,1-c:5′,1′-f][1,2,4]triazin-5-one], the IC50 is below 1 µM.

In turn, `O=c1c2cnc(C3CCOCC3)n2nc2n1CC[C@H](c1ccc(Cl)cc1C(F)(F)F)N2` [Example 122] displayed a 50% inhibitory concentration (IC50) below 1 µM.

As for `O=c1c2cnc(C3CCOCC3)n2nc2n1CC[C@@H](c1ccc(Cl)cc1C(F)(F)F)N2` [Example 123], the IC50 lay in the range of 1 to 10 µM.

`O=c1c2cnc(C3CCOCC3)n2nc2n1CC[C@@H](c1ccc(Cl)cc1F)N2` [Example 124] came in with a half-inhibitory concentration (IC50) of 1 to 10 µM.

Consider `O=c1c2cnc(C3CCOCC3)n2nc2n1CC[C@H](c1ccc(Cl)cc1F)N2` [Example 125], for which the IC50 is below 1 µM.

Take `O=c1c2cnc(C3CCOCC3)n2nc2n1CC[C@@H](c1cccc(Cl)c1)N2` [Example 126]: the concentration for half-maximal inhibition (IC50) is below 1 µM.

As to `O=c1c2cnc(C3CCOCC3)n2nc2n1CC[C@H](c1cccc(Cl)c1)N2` [Example 127], the IC50 was below 1 µM.

As for `COc1cccc([C@H]2CCn3c(nn4c(C5CCOCC5)ncc4c3=O)N2)c1` [Example 128], the IC50 was below 1 µM.

`COc1cccc([C@@H]2CCn3c(nn4c(C5CCOCC5)ncc4c3=O)N2)c1` [Example 129] returned an IC50 below 1 µM.

`COc1cncc([C@H]2CCn3c(nn4c(C5CCCC5)ncc4c3=O)N2)c1` [Example 130] displayed a concentration for half-maximal inhibition (IC50) below 1 µM.

Take `COc1cncc([C@@H]2CCn3c(nn4c(C5CCCC5)ncc4c3=O)N2)c1` [Example 131]: the IC50 was below 1 µM.

As for `Cc1cncc([C@H]2CCn3c(nn4c(C5CCCC5)ncc4c3=O)N2)c1` [Example 132], the concentration for half-maximal inhibition (IC50) was below 1 µM.

Compound `Cc1cncc([C@@H]2CCn3c(nn4c(C5CCCC5)ncc4c3=O)N2)c1` [Example 133] returned an IC50 below 1 µM.

`O=c1c2cnc(C3CCCC3)n2nc2n1CC[C@@H](c1cncc(Cl)c1)N2` [Example 134] returned an IC50 below 1 µM.

`O=c1c2cnc(C3CCCC3)n2nc2n1CC[C@H](c1cncc(Cl)c1)N2` [Example 135] returned a half-maximal inhibitory concentration (IC50) below 1 µM.

The compound `CC(C)c1ncc2n1NC1=N[C@H](c3ccc(Cl)cc3)CN1C2=O` [Example 136, (2R)-2-(4-Chlorophenyl)-8-isopropyl-2,10-dihydro-3H,5H-diimidazo[2,1-c:5′,1′-f][1,2,4]triazin-5-one] came in with a half-maximal inhibitory concentration (IC50) below 1 µM.

The compound `CC(C)c1ncc2n1NC1=N[C@@H](c3ccc(Cl)cc3)CN1C2=O` [Example 137, (2S)-2-(4-Chlorophenyl)-8-isopropyl-2,10-dihydro-3H,5H-diimidazo[2,1-c:5′,1′-f][1,2,4]triazin-5-one] displayed an IC50 below 1 µM.

`O=c1c2cnc(C3CCOCC3)n2nc2n1C[C@@H](c1ccc(Cl)cc1)N2` [Example 138] showed an IC50 below 1 µM.

Compound `COc1ccc([C@@H]2Cn3c(nn4c(C5CCOCC5)ncc4c3=O)N2)cc1` [Example 140] yielded an IC50 below 1 µM.

As to `CC(C)n1ncc2c(=O)n3c(nc21)N[C@H](c1ccc(Cl)cc1)C3` [Example 143], the concentration for half-maximal inhibition (IC50) was below 1 µM.

With `COc1ccc([C@H]2Cn3c(nc4c(cnn4C(C)C)c3=O)N2)cc1` [Example 146], the IC50 was below 1 µM.

Turning to `O=c1c2cnn(C3CCOCC3)c2nc2n1C[C@@H](c1ccc(Cl)cc1)N2` [Example 147], the IC50 was 1 to 10 µM.

`O=c1c2cnn(C3CCOCC3)c2nc2n1C[C@H](c1ccc(Cl)cc1)N2` [Example 148] registered an IC50 below 1 µM.

With `CC(C)c1onc2c(=O)n3c(nc12)N[C@@H](c1ccc(Cl)cc1)CC3` [Example 152, (6R)-6-(4-Chlorophenyl)-3-isopropyl-4,6,7,8-tetrahydro-10H-[1,2]oxazolo[4,3-d]pyrimido[1,2-a]pyrimidin-10-one], the concentration for half-maximal inhibition (IC50) was 1 to 10 µM.

With `O=c1c2noc(C3CCCC3)c2nc2n1CC[C@H](c1ccc(Cl)cc1)N2` [Example 153], the 50% inhibitory concentration (IC50) was 10 to 100 µM.

With `N#Cc1ccc(C2CCn3c(nc4c(C5CCCC5)onc4c3=O)N2)cc1` (centres unmarked) [Example 154], the 50% inhibitory concentration (IC50) fell in the range of 1 to 10 µM.
